Data: patent US20220213144A1, “HALOGENATED ANTIMICROBIAL PEPTOIDS” (priority 2019, published 2022)
≈ marks a conversion by molar mass, not a printed value. Read-outs that look alike come from different tables or passages of the source. Square brackets hold non-standard residues; d marks the D form. Peptide text beside a SMILES is read from it. N(4-Br-benzyl)Gly = O=C(O)CNCc1ccc(Br)cc1; Nspe = C[C@H](NCC(=O)O)c1ccccc1; Nphe = O=C(O)CNCc1ccccc1; Nlys = NCCCCNCC(=O)O

Assays:
[1] = tested on: S. aureus and S. epidermidis; format: cell-based, Staphylococcus aureus, Staphylococcus epidermidis; conditions: span over the Gram-positive strains
Protocol: (§1) Bacterial growth inhibition was determined by using broth microdilution according to the Clinical Laboratory Standards Institute. The antibacterial activity of peptoids was tested against S. aureus ATCC 25923, ATCC29213, and methicillin resistant S. aureus USA 300, methicillin resistant S. epidermidis ATCC 51625, a biofilm producing methicillin resistant S. epidermidis […], P. aeruginosa Pa01 (H103), and E. coli ATCC 25922. Bacteria, grown on agar plates for 18 hours at 37° C., were diluted to ˜1×10^8 CFU/mL in Mueller-Hinton Broth II (MHB II). Twofold serial dilutions of peptoids in MHB II were inoculated with the bacteria to achieve a final concentration of 5×10^5 CFU/mL in polypropylene 96 U-well microtiter plates (Corning™ 3897; ThermoFisher Scientific, Roskilde), followed by incubation at 37° C. in ambient air for 18 hours. The MIC values were determined as the lowest concentration showing no visible bacterial growth. Experiments were performed twice (in technical triplicates) on different days.

[2] = Small angle X-ray scattering, critical aggregation concentration from fit; format: physicochemical; conditions: Table 2; 10-mers, SAXS at ESRF, model fit
Protocol: SAXS experiments of the 10-mer peptoids were performed on the automated BM29 bioSAXS beamline at the European Synchrotron Radiation Facility (ESRF) in Grenoble, France. The data was obtained using an energy of 12.5 keV and a detector distance of 2.87 m, covering a q range (q=4π sin(θ/2)/λ), where θ is the scattering angle and λ is the X-ray wavelength) of about 0.0047 Å-1 to 0.5 Å-1. The data set was calibrated to an absolute intensity scale using water as a primary standard. Samples (40 μL) were run through a capillary using the flow mode of the automated sample changer. SAXS data was collected in ten successive frames of 0.5 s each to monitor radiation damage, and the data reduction was done using the standard tool at BM29.
The SAXS experiments on the fully iodinated 6-, 8-, and 12-mers to determine the CAC of the compounds were performed using a Bruker NANOSTAR equipped with a microfocus X-ray source (IμS Cu, Incoatec, Germany) and a VANTEC-2000 detector. Raw scattering data was calibrated to absolute intensity scale using water as a primary standard and radially averaged in order to obtain the 1D scattered intensity profile as a function of the scattering vector, with a wavelength of 1.54 Å.
where fagg is the fraction of peptoid chains aggregated in bundles, allowing for calculation of a CAC from ϕCAC=ϕ−(fagg*ϕ).

E. coli ATCC 25922 = format: cell-based, Escherichia coli
Protocol: as §1

P. aeruginosa PA01 = format: cell-based, Pseudomonas aeruginosa; conditions: P. aeruginosa PA01 H103
Protocol: as §1

[3] = in words; cited from earlier work
[4] = tested on: methicillin-restant S. epidermidis ET-024; format: cell-based, Staphylococcus epidermidis; conditions: S. epidermidis ET-024
Protocol: as §1

[5] = tested on: methicillin-restant S. epidermidis ATCC 51625; format: cell-based, Staphylococcus epidermidis; conditions: S. epidermidis ATCC 51625
Protocol: as §1

[6] = intraperitoneal; Czyzewski et al. 2016; cited from earlier work
[7] = tested on: methicillin-resistant S. aureus USA 300; format: cell-based, Staphylococcus aureus
Protocol: as §1

S. aureus ATCC 25923 = format: cell-based, Staphylococcus aureus; conditions: S. aureus ATCC 25923
Protocol: as §1

[8] = Cell viability assay (MTS/PMS), HaCaT cell line; format: cell-based; conditions: human, text b151, read-out: IC50 (cytotoxicity, HaCaT)
Protocol: An immortalized human keratinocytes (HaCaT) cell line (Gift from David Gram Naym at Bispebjerg Hospital) was cultured to ˜90% confluence after 21-25 h of growth under standard conditions (5% CO2/95% 02 at 37° C.). Cells were cultured in Dulbecco's Modified Eagle's Medium supplemented with 10% (v/v) fetal bovine serum (FBS). All culture media were supplemented with penicillin (100 IU/mL) and streptomycin (100 μg/mL). All cell media and supplements were obtained from Sigma-Aldrich (St. Louis, Mo., United States). The 96-well plates were obtained from Corning Costar (Sigma-Aldrich, Brondby, Denmark).
Cell viability assessment was performed on cell monolayers grown to ˜90% confluence in 96-well plates using the MTS/PMS assay as previously described. Briefly, the adhered cells were washed with 37° C. PBS solution (ThermoFisher Scientific, Roskilde) and exposed for 1 h at 37° C. to 100 μL of peptoid dissolved in the medium also used for culturing of the cell line (at concentrations in the range 0-1000 μg/mL). The cells were then washed twice with 37° C. PBS. […] A plate reader (SpectraMax i3X; Molecular devices, San Jose, Calif.) was used to measure the absorbance at 492 nm. The relative viability was calculated by using 0.2% (w/v) sodium dodecyl sulfate (SDS) as the positive control, while cells exposed to medium without test compound were used as the negative control. […]

## NCCCCNCC(=O)N(CC(=O)N(CCCCN)CC(=O)N(CC(=O)N(CCCCN)CC(=O)N(CC(=O)N(CCCCN)CC(=O)N(CC(=O)N(CCCCN)CC(=O)N(CC(N)=O)Cc1ccc(Br)cc1)Cc1ccccc1)Cc1ccc(Br)cc1)Cc1ccccc1)Cc1ccc(Br)cc1 [Compound 26] (H-[Nlys][N(4-Br-benzyl)Gly][Nlys][Nphe][Nlys][N(4-Br-benzyl)Gly][Nlys][Nphe][Nlys][N(4-Br-benzyl)Gly]-NH2)
[1]
  MICs: 1 to 8 µg/mL
[2]
  CAC: >5 mg/mL

## C[C@@H](c1ccccc1)N(CC(N)=O)C(=O)CN(C(=O)CN(CCCCN)C(=O)CN(C(=O)CN(C(=O)CN(CCCCN)C(=O)CN(C(=O)CN(C(=O)CN(CCCCN)C(=O)CN(C(=O)CN(C(=O)CNCCCCN)[C@@H](C)c1ccccc1)[C@@H](C)c1ccccc1)[C@@H](C)c1ccccc1)[C@@H](C)c1ccccc1)[C@@H](C)c1ccccc1)[C@@H](C)c1ccccc1)[C@@H](C)c1ccccc1 [Peptoid 1, H-(NLys-Nspe-Nspe)4-NH2] (H-[Nlys][Nspe][Nspe][Nlys][Nspe][Nspe][Nlys][Nspe][Nspe][Nlys][Nspe][Nspe]-NH2)
E. coli ATCC 25922; Table 4
  MIC EC^e: 8 µg/mL (≈ 4.4 µM)
E. coli ATCC 25922; Table 5
  MIC EC^e: 8 µg/mL (≈ 4.4 µM)
P. aeruginosa PA01; Table 4
  MIC PA^f: 16 µg/mL (≈ 8.79 µM)
P. aeruginosa PA01; Table 5
  MIC PA^f: 16 µg/mL (≈ 8.79 µM)
[3]
  cytotoxicity in vitro: relatively high cytotoxicity
[4]; Table 4
  MIC MRSE^c: 4 µg/mL (≈ 2.2 µM)
[4]; Table 5
  MIC MRSE^c: 4 µg/mL (≈ 2.2 µM)
[5]; Table 4
  MIC MRSE^d: 8 µg/mL (≈ 4.4 µM)
[5]; Table 5
  MIC MRSE^d: 8 µg/mL (≈ 4.4 µM)
[6]
  tolerability intraperitoneally in vivo: reasonably well tolerated
[7]; Table 4
  MIC MRSA^b: 8 µg/mL (≈ 4.4 µM)
[7]; Table 5
  MIC MRSA^b: 8 µg/mL (≈ 4.4 µM)
S. aureus ATCC 25923; Table 4
  MIC SA^a: 8 µg/mL (≈ 4.4 µM)
S. aureus ATCC 25923; Table 5
  MIC SA^a: 8 µg/mL (≈ 4.4 µM)
[8]
  IC50 at 1 h: 35 µg/mL (≈ 19.2 µM)
